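All cell lines were grown in 96-well plates and treated with compound for 48 hours. Here, GI50 denotes the concentration required for 50% inhibition of growth.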 Calls of active or inactive are those of the source. Rule as the data show it: active = GI50 up to about 1.1 µM and inactive = higher.

Common to all, as to assay: inhibition of tumour cell growth, NCI panel, 48 h
The subject of assay [1] is SF-268.
Assay [2] relates to IGROV-1.
The subject of assay [3] is MDA-MB-435.
For assay [4], the system named is SF-539.
For assay [5], the system named is SW-620.
Assay [6] relates to SK-OV-3.
The test system of assay [7] is A498.
The subject of assay [8] is SNB-19.
Assay [9] deals with COLO 205.
The test system of assay [10] is 786-0.
The subject of assay [11] is HCT-15.
The subject of assay [12] is EKVX.
Assay [13] concerns RPMI-8226.
For assay [14], the system named is KM12.
The subject of assay [15] is MOLT-4.
Assay [16] relates to UACC-257.
In assay [17] the test system is SF-295.
Assay [18] deals with K562.
Assay [19] relates to OVCAR-5.
In assay [20] the test system is Malme-3M.

As to `CC(=O)Nc1ccc(-c2nc3ccccc3s2)cc1C`, the GI50 is 64.4 µM (inactive) in assay [1]; 38.6 µM (inactive) in assay [2]; > 100 µM (inactive) in [3]; 50.8 µM (inactive) in assay [4]; > 100 µM (inactive) in assay [5]; 32.6 µM (inactive) in [6]. The GI50 in assay [7] was 2.9 µM (inactive); in [8], 36.9 µM (inactive); in assay [9], 45 µM (inactive); in assay [10] it was 52.6 µM (inactive); in assay [11], > 100 µM; in assay [12], 25.1 µM (inactive). The GI50 is 55.2 µM (inactive) in assay [13]; 51.2 µM (inactive) in assay [14]; 24.9 µM (inactive) in assay [15]; 69.7 µM (inactive) in assay [16]; 40 µM (inactive) in [17].
With `CC1=NN(c2nc(N)nc(COc3ccc(N)cc3)n2)C(C)(C)C1`, the GI50 in [1], in assay [2], in assay [3], in assay [4], in assay [5] and in assay [6] was > 100 µM (inactive) throughout. In addition, the GI50 was > 100 µM (inactive) in assay [7]; > 100 µM (inactive) in assay [8]; > 100 µM (inactive) in assay [9]; > 100 µM (inactive) in assay [10]; > 100 µM in [11]; > 100 µM (inactive) in assay [12]. Besides, the GI50 in assay [13], in [14], in [15], in [18], in [16] and in [17] was > 100 µM (inactive) in each case.
For the molecule `COc1ccc(CCN2C(=O)CC34C=CC(CC3C2=O)O4)cc1OC` (configuration not stated), the GI50 in [2], in assay [3], in [4], in [5], in assay [6] and in assay [7] was > 100 µM (inactive) in each case. Besides, the GI50 was > 100 µM (inactive) in assay [8]; > 100 µM (inactive) in assay [9]; > 100 µM (inactive) in assay [10]; > 100 µM in assay [11]; > 100 µM (inactive) in assay [12]; > 100 µM (inactive) in [13]. In addition, the GI50 in assay [14], in assay [15], in [18], in assay [16], in [17] and in assay [19] was > 100 µM (inactive) in each case.
`CC1C=C(NCC2(CO)CCC2)N=C(N)N1` (configuration not stated): the GI50 in [1] was > 100 µM (inactive); in assay [2], > 100 µM (inactive); in assay [3], > 100 µM (inactive); in assay [5] it was > 100 µM (inactive); in assay [6], > 100 µM (inactive); in [7], 91.6 µM (inactive). The GI50 in assay [8] was > 100 µM (inactive); in assay [9], > 100 µM (inactive); in assay [10] it was > 100 µM (inactive); in [11], > 100 µM; in assay [12], > 100 µM (inactive); in assay [13] it was > 100 µM (inactive). Also, the GI50 in assay [14], in [20], in [15], in [18], in [16] and in assay [17] was > 100 µM (inactive) in each case. Moreover, in [19], the GI50 is > 100 µM (inactive).
Take `C/C(=C\C(=O)O)C(=O)N(C)c1ccccc1I`: the GI50 in [1], in assay [3], in [5], in [6], in assay [7] and in [8] was > 100 µM (inactive) each time. Moreover, the GI50 in assay [9] was > 100 µM (inactive); in [10], > 100 µM (inactive); in assay [11], > 100 µM; in [12], > 100 µM (inactive); in [13], > 100 µM (inactive); in assay [14] it was > 100 µM (inactive). In addition, the GI50 in assay [20], in assay [15], in assay [18], in assay [16], in assay [17] and in assay [19] was > 100 µM (inactive) throughout.
Regarding `O=S(=O)(N/C(=N\O)Nc1ccc(Cl)cc1)c1ccc(S(=O)(=O)c2ccccc2)s1`, the GI50 was 23.1 µM (inactive) in assay [1]; 15.2 µM (inactive) in [2]; 17 µM (inactive) in assay [3]; 24.5 µM (inactive) in assay [4]; 30.1 µM (inactive) in assay [5]; 15.5 µM (inactive) in assay [7]. The GI50 was 33.7 µM (inactive) in [8]; 15.7 µM (inactive) in [9]; 29.7 µM (inactive) in [10]; 28.1 µM in assay [11]; 18.8 µM (inactive) in assay [12]; 13.6 µM (inactive) in assay [13]. In addition, the GI50 in [14] is 20.6 µM (inactive); in assay [20], 19.4 µM (inactive); in [15] it was 12.9 µM (inactive); in assay [18] it was 16.6 µM (inactive); in [16], 16 µM (inactive); in assay [17], 26.5 µM (inactive). Moreover, the GI50 in assay [19] is 24.3 µM (inactive).
As for `Cc1n[nH]c(=O)n1/N=C/c1ccc([N+](=O)[O-])cc1`, the GI50 in assay [1] is 70.6 µM (inactive); in [3] it was > 100 µM (inactive); in assay [4] it was > 100 µM (inactive); in assay [5], > 100 µM (inactive); in [7] it was > 100 µM (inactive); in assay [9], > 100 µM (inactive). For the same molecule, the GI50 is > 100 µM (inactive) in assay [10]; > 100 µM in [11]; 60.7 µM (inactive) in assay [12]; > 100 µM (inactive) in assay [13]; > 100 µM (inactive) in [14]; > 100 µM (inactive) in [20]. In addition, the GI50 in [15], in assay [18], in assay [16], in assay [17] and in [19] was > 100 µM (inactive) each time.
Regarding `N#CCCN(CCC#N)c1ccc(C(/N=N/c2ccc(Cl)cc2)=N\c2ccccc2)cc1`, the GI50 in [1] was 13.2 µM (inactive); in [2] it was 11.7 µM (inactive); in assay [3], 11 µM (inactive); in [4] it was 14.9 µM (inactive); in assay [5], 18 µM (inactive); in assay [6] it was 13.2 µM (inactive). Besides, the GI50 in assay [7] was 17.6 µM (inactive); in [8], 12.2 µM (inactive); in assay [9] it was 3.2 µM (inactive); in assay [10], 14.9 µM (inactive); in assay [11] it was 5.93 µM; in assay [12] it was 12.1 µM (inactive). Besides, the GI50 was 43.6 µM (inactive) in [13]; 11.4 µM (inactive) in [14]; 22.7 µM (inactive) in [15]; 41.7 µM (inactive) in [18]; 7.83 µM (inactive) in assay [16]; 1.06 µM (active) in assay [17]. Moreover, the GI50 in assay [19] was 12.4 µM (inactive).
For the molecule `Cc1c(C)c2c(c(N)c1C#N)C(=O)N(CCN1CCNCC1)C2=O`, the GI50 is 34.1 µM (inactive) in assay [1]; 34.7 µM (inactive) in assay [2]; 33.5 µM (inactive) in assay [3]; 32.8 µM (inactive) in assay [4]; 31.6 µM (inactive) in [5]; 22.2 µM (inactive) in assay [7]. The GI50 in [8] is 49.3 µM (inactive); in [9], 22.5 µM (inactive); in assay [10] it was 25.4 µM (inactive); in assay [11] it was 35.6 µM; in [12], 39 µM (inactive); in assay [13], 38 µM (inactive). Further, the GI50 in [14] was 45.4 µM (inactive); in assay [20], 22.6 µM (inactive); in assay [15] it was 30.5 µM (inactive); in assay [18], 51.6 µM (inactive); in [16] it was 37.7 µM (inactive); in [17], 31.5 µM (inactive). Also, in assay [19], the GI50 was 31.1 µM (inactive).
Take `CC1=C(C(=O)OCCc2ccc([N+](=O)[O-])cc2)C(c2ccccc2C(F)(F)F)C(C(=O)OC(C)C)=C(C)N1` (configuration not stated): the GI50 in assay [1] is 3.53 µM (inactive); in [2] it was 4.88 µM (inactive); in [3] it was 3.84 µM (inactive); in [4] it was 3.82 µM (inactive); in [5] it was 3.68 µM (inactive); in [6], 3.97 µM (inactive). Also, the GI50 in [8] is 4.85 µM (inactive); in [9] it was 2.97 µM (inactive); in assay [10], 4.16 µM (inactive); in [11], 3.78 µM; in assay [12] it was 2.05 µM (inactive); in [13], 3.1 µM (inactive). Moreover, the GI50 in [14] was 2.88 µM (inactive); in [20], 3.49 µM (inactive); in [15], 2.08 µM (inactive); in [18] it was 2.41 µM (inactive); in assay [16], 3.86 µM (inactive); in [17], 2.68 µM (inactive). Moreover, in [19], the GI50 was 16.1 µM (inactive).
For `Nc1ccc2c(c1)C(=O)c1ccc(F)cc1-2`, the GI50 in assay [1], in assay [2], in assay [3], in assay [4], in assay [5] and in assay [6] was > 100 µM (inactive) each time. Also, the GI50 was > 100 µM (inactive) in [7]; > 100 µM (inactive) in assay [8]; > 100 µM (inactive) in assay [9]; > 100 µM (inactive) in assay [10]; > 100 µM in assay [11]; 72.4 µM (inactive) in [12]. Also, the GI50 in assay [13] was > 100 µM (inactive); in assay [14], > 100 µM (inactive); in assay [15], 57.8 µM (inactive); in assay [18] it was > 100 µM (inactive); in [16], > 100 µM (inactive); in [17] it was > 100 µM (inactive). Also, the GI50 in [19] was > 100 µM (inactive).
